Key:
Tetranychus urticae = test: Laboratory test of mite control (Unesp, Jaboticabal); type: in vivo; conditions: dose 30 g-mL/100 L, lab conditions; for Mite control (%) 1 DFA: 1 day following application; for Mite control (%) 2 DFA: 2 days following application; for Mite control (%) 3 DFA: 3 days following application; for Mite control (%) 4 DFA: 4 days following application; for Mite control (%) 7 DFA: 7 days following application
From the text: Application of miticide propargite: application to control mites in lab conditions, performed by Unesp in Jaboticabal, SP. Quantitative (control) results are described in table 3. Assessments were made of the plant treated with miticide propargite against the witness plant (untreated).
Application of miticide abamectin: application to control mites in lab conditions, performed by Unesp in Jaboticabal, SP. Quantitative (control) results are described in Chart 4. Assessments were made of the plant treated with miticide abamectin against the witness plant (untreated).
Example 5: Laboratory Test Performed by Unesp in Jaboticabal, SP to Measure Mite Control, Specifically Control of Tetranychus Urticae with 4 Repetitions and 4 Treatments
The first (treatment 1) is a sample of the plant with no treatment (Witness). The second treatment is a sample treated with Folcysteine alone (treatment 2). The third treatment is a plant sample treated only with the agrotoxic of interest, miticide AI4 (based on propargite), identified as treatment 3, and the fourth treatment used a folcysteine-based biostimulant and an agrotoxic of interest, miticide AI4 (propargite-based), identified as treatment 4, applied under laboratory conditions. See the results in the following table:
Example 6: Laboratory Test Performed by Unesp in Jaboticabal, SP to Measure Mite Control, Specifically Control of Tetranychus Urticae with 4 Repetitions and 4 Treatments
The first (treatment 1) is a sample of the plant with no treatment (Witness). The second is a sample treated with Folcysteine alone (treatment 2). The third treatment is a plant sample treated only with the agrotoxic of interest, miticide AI5, and the fourth treatment uses a blend of folcysteine-based biostimulant and an agrotoxic of interest, miticide AI5 (abamectin-based), identified as treatment 4, applied under laboratory conditions.

corn = type: in vivo; conditions: dose 1.50 kg-l/ha

| Molecule | Mite control (%) 1 DFA (Tetranychus urticae) | Mite control (%) 2 DFA (Tetranychus urticae) | Mite control (%) 3 DFA (Tetranychus urticae) | Mite control (%) 4 DFA (Tetranychus urticae) | Mite control (%) 7 DFA (Tetranychus urticae) | Productivity Index (corn; herbicide alone = 100) | Weight of 1,000 grains Index (corn; herbicide alone = 100) | Productivity (corn; spraying volume 300 l/ha) | Weight of 1,000 grains (corn; spraying volume 300 l/ha) |
| --- | --- | --- | --- | --- | --- | --- | --- | --- | --- |
| C#CCOS(=O)OC1CCCCC1Oc1ccc(C(C)(C)C)cc1 (centres unmarked) [Propargite, propargite] | 59% | 63% | 70% | 77% | 98% | – | – | – | – |
| CP(=O)(O)CCC(N)C(=O)O.N (centres unmarked) [ammonium glufosinate] | – | – | – | – | – | 100 | 100 | 7.142 b kg/ha | 25.89 a g |
| abamectin | 20% | 20% | 20% | 45% | 62% | – | – | – | – |

Reference: US12185719B2, “Mixture of a folcysteine-based biostimulant and an agrotoxic substance of interest resulting in a quantitatively, qualitatively and time-related result-potentiating action as observed in an agricultural crop of a plant of interest” (priority 2017, dated 2025)
